Experimental data reported in patent publication US20240067632A1, “WEE1 Degrading Compounds and Uses Thereof” (Bristol-Myers Squibb Company, priority 2022, published 2024).

Legend:
[1] = test system: MKN45 cells; experiment: MKN45 cell proliferation assay (Cell-Titer-Glo, 120 h); format: cell-based; settings: for EC50: Homo sapiens, MKN-45, 120 h, Cell-Titer-Glo, growth inhibition, read-out: MKN45 Cell Prolif. 120 hr (EC50); for MKN45 Cell Prolif. 120 hr (Ymin-Obs): minimal percent of DMSO control observed in the concentrations tested
How it was run: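 Growth inhibition was read as blank-corrected Cell-Titer-Glo luminescence expressed as percent DMSO control after 120 h at 37 C, 400 cells/well. Compounds tested in triplicate as 10-point half-log series from 1 or 10 uM, 0.1% DMSO; four-parameter fit gave EC50, and lowest observed percent control was reported as Ymin-obs.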

[2] = molecular target: T1, WEE1 (Homo sapiens, UniProt P30291+Q96SW2); experiment: WEE1-ePL degradation assay (LentiX-WEE1-ePL-GSPT1-ND cells, InCELL Hunter luminescence, 4 h); format: cell-based; settings: 293T-LentiX WEE1-ePL cells; for 293T-LentiX WEE1-ePL Degradation 4 hr (Ymin): lower limit of the fit (0 = luciferase inhibitor, Ymax = DMSO control); for DC50: read-out: 293T-LentiX WEE1-ePL Degradation 4 hr (EC50)
T1 construct: C-terminal ePL-tagged (DiscoverX, Fremont, CA) full-length WEE1 expression construct; expressed in transfected cells; host or cells: LentiX-HEK293T (Invitrogen), lentiviral transduction; co-expressing GSPT1-GN (G576N, lacking the first 158 amino acids)
How it was run: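 LentiX-HEK293T cells stably expressing C-terminally ePL-tagged full-length WEE1 were treated with compounds in a 10-point, 3-fold dilution series starting at 1 uM or 10 uM for 4 h at 37 °C. Remaining WEE1-ePL was detected by InCELL Hunter luminescence, and EC50, Ymin and Ymax came from a four-parameter logistic fit against DMSO control.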

Row | Structure (SMILES) | EC50 [1] [nM] | MKN45 Cell Prolif. 120 hr (Ymin-Obs) [1] | 293T-LentiX WEE1-ePL Degradation 4 hr (Ymin) [2] | DC50 [2] [nM]
1 | Cc1ccnc(CN2CC[C@H](Oc3ccc4c(c3)CN(C3CCC(=O)NC3=O)C4=O)C2)c1 (stereo partly drawn) [3-(5-{[(3S)-1-[(4-methylpyridin-2-yl)methyl]pyrrolidin-3-yl]oxy}-1-oxo-2,3-dihydro-1H-isoindol-2-yl)piperidine-2,6-dione] | 1330 | 42.67 | 38.55 | 65.4
2 | O=C1CCC(N2Cc3cc(O[C@H]4CCN(Cc5cnc6ccc(F)c(F)c6c5)C4)ccc3C2=O)C(=O)N1 (stereo partly drawn) [3-(5-{[(3S)-1-[(5,6-difluoroquinolin-3-yl)methyl]pyrrolidin-3-yl]oxy}-1-oxo-2,3-dihydro-1H-isoindol-2-yl)piperidine-2,6-dione] | 166 | 44.73 | 43.98 | 13.3
3 | Cc1cc(CN2CC[C@H](Oc3ccc4c(c3)CN(C3CCC(=O)NC3=O)C4=O)C2)cnc1C (stereo partly drawn) [3-(5-{[(3S)-1-[(5,6-dimethylpyridin-3-yl)methyl]pyrrolidin-3-yl]oxy}-1-oxo-2,3-dihydro-1H-isoindol-2-yl)piperidine-2,6-dione] | 955 | 43.03 | 35.675 | 25.9
4 | Cc1ccc2c(F)c(CN3CC[C@H](Oc4ccc5c(c4)CN(C4CCC(=O)NC4=O)C5=O)C3)ccc2n1 (stereo partly drawn) [3-(5-{[(3S)-1-[(5-fluoro-2-methylquinolin-6-yl)methyl]pyrrolidin-3-yl]oxy}-1-oxo-2,3-dihydro-1H-isoindol-2-yl)piperidine-2,6-dione] | 8.08 | 9.22 | 28.365 | 1.51
5 | O=C1CCC(N2Cc3cc(O[C@H]4CCN(Cc5cc6c(F)cccc6cn5)C4)ccc3C2=O)C(=O)N1 (stereo partly drawn) [3-(5-{[(3S)-1-[(5-fluoroisoquinolin-3-yl)methyl]pyrrolidin-3-yl]oxy}-1-oxo-2,3-dihydro-1H-isoindol-2-yl)piperidine-2,6-dione] | 185 | 53.33 | 43.45 | 13.3
6 | O=C1CCC(N2Cc3cc(O[C@H]4CCN(Cc5cnc6cccc(F)c6c5)C4)ccc3C2=O)C(=O)N1 (stereo partly drawn) [3-(5-{[(3S)-1-[(5-fluoroquinolin-3-yl)methyl]pyrrolidin-3-yl]oxy}-1-oxo-2,3-dihydro-1H-isoindol-2-yl)piperidine-2,6-dione] | 309 | 35.14 | 31.52 | 12
7 | COc1cncc(CN2CC[C@H](Oc3ccc4c(c3)CN(C3CCC(=O)NC3=O)C4=O)C2)c1C (stereo partly drawn) [3-(5-{[(3S)-1-[(5-methoxy-4-methylpyridin-3-yl)methyl]pyrrolidin-3-yl]oxy}-1-oxo-2,3-dihydro-1H-isoindol-2-yl)piperidine-2,6-dione] | 833 | 59.99 | 61 | 28.5
8 | COc1cncc(CN2CC[C@H](Oc3ccc4c(c3)CN(C3CCC(=O)NC3=O)C4=O)C2)c1 (stereo partly drawn) [3-(5-{[(3S)-1-[(5-methoxypyridin-3-yl)methyl]pyrrolidin-3-yl]oxy}-1-oxo-2,3-dihydro-1H-isoindol-2-yl)piperidine-2,6-dione] | 3320 | 48.12 | 37.55 | 61.4
9 | Cc1cccc2cnc(CN3CC[C@H](Oc4ccc5c(c4)CN(C4CCC(=O)NC4=O)C5=O)C3)cc12 (stereo partly drawn) [3-(5-{[(3S)-1-[(5-methylisoquinolin-3-yl)methyl]pyrrolidin-3-yl]oxy}-1-oxo-2,3-dihydro-1H-isoindol-2-yl)piperidine-2,6-dione] | 86.1 | 19.01 | 31.91 | 4.62
